Like-named read-outs stand apart in the source and are kept apart here.

The subject of assay [1] is Passive cutaneous anaphylaxis (P.C.A.). In words: Inhibition of passive cutaneous anaphylaxis (P.C.A.). In kind it is in vivo, rat (Sprague-Dawley). The settings on record: Rattus norvegicus, 1 h; rats, 2 × 10^-5 mol/kg p.o., one hour before ovalbumin challenge. The method, then: (§1) 1. Determination of the inhibition of passive cutaneous anaphylaxis (P.C.A.) and of the anaphylactoid cutaneous reaction induced by histamine.
The P.C.A. reaction was carried out according to the methods described by Goose et al. (J.N. Immunology 16 (1969), 749) and by Martin et al (Arch. Pharmacol. 316 (1981), 186}.
The IgE-rich ovalbumin antiserum used in the test was obtained from immunized Brown-Norway rats. For immunization, the rats were given an i.p. injection of a mixture of 100 μg of ovalbumin with a Bordetella pertussis suspension (Vaxicoq®, Manufacturer: Institut Merieux, containing 5×10^9 organisms and 1.25 mg of Al(OH)3). After 20 days, the animals received a further i.p. injection of a solution of 10 μg of ovaIbumin in 0.5 ml of physiological saline solution for reimmunisation. After a further four days, the animals were bled, and the blood was centrifuged The antiserum obtained in this way was stored at -20° C. until use.
(§2) The determination of the inhibition of passive cutaneous anaphylaxis and the anaphylactoid cutaneous reaction induced by histamine was carried out as follows:
Sprague-Dawley rats having a body weight of 150-180 g were injected intradermally in one flank with 50 μl of a 1:75 dilution of the IgE-rich ovalbumin antiserum in physiological sodium chloride solution for passive sensitization to ovalbumin.
24 hours after sensitization a solution of 8.25 mg/kg of ovalbumin and 26.4 mg/kg of a blue dye (Evans' Blue) was administered i.v. to the rats according to Martin et al. to induce passive cutaneous anaphylaxis. The ovalbumin challenge caused a local anaphylactic reaction at the site at which the antiserum had been injected.
(§3) On the test days, the test substances were dissolved in distilled water which contained 1% by volume of dimethylformamide and 1% by volume of Tween®20 (polyoxyethylene(20) sorbitan monolaurate). One hour before the challenging ovalbumin administration, each animal received 2×10^-5 mol/kg of test substance administered orally in 0.5 ml of solution. A control group received only the solvent for comparison.
(§4) The oedematous anaphylactic (P.C.A.) and anaphylactoid (histamine-induced) reactions caused by the challenging i.v. ovalbumin injection, which are manifested by oedema formation, swelling and exudation of blue dye, were evaluated 30 minutes after challenge by the i.v. ovalbumin injection. This was done by visual determination of the extent to which the blue dye emerges at the sites of oedema formation. The percentage inhibition of anaphylactic and anaphylactoid reactions caused by the test substances was determined in comparison with the reactions of the control animals not treated with test substance with the aid of comparison scales.
(§5) The results obtained by the above test methods using compounds of the formula I are shown in the following Table A. The example numbers given for the compounds of formula I relate to the following preparation examples.

The test system of assay [2] is Histamine-induced anaphylactoid reactions. In words: Inhibition of anaphylactoid cutaneous reaction induced by histamine. It is filed as in vivo, rat (Sprague-Dawley). The settings on record: Rattus norvegicus, 1 h; rats, 2 × 10^-5 mol/kg p.o., one hour before challenge; histamine intradermal. As to the method: as §1, §2
To determine the histamine-induced anaphylactoid skin reaction, the animals were injected intradermally in the flank opposite to the antiserum administration with 50 μl of a physiological saline solution containing 0.8 mg/ml of histamine directly before the i.v. injection of the solution containing the ovalbumin and the blue dye.
as §3, §4, §5

In assay [3] the test system is P.A.F.-induced aggregation of platelets from rabbit blood. Kind of assay: Anti-P.A.F. effect in vitro: inhibition of P.A.F.-induced platelet aggregation. It is filed as cell-based, rabbit (New Zealand hybrids). To be noted: Oryctolagus cuniculus, Platelet, test substance concentration 10^-5 mol/l. From the text: 4. Determination of anti-P.A.F. effect in vitro.
Platelet-activating factor (P.A.F.) is a phospholipid mediator which has several effects. The activation of platelet aggregation leads to the induction of protracted broncho contractions and hyperreactivity of the airways.
The effects of the test substances on platelet aggregation induced by adding P.A.F. to a platelet suspension obtained from rabbit blood was investigated by the method described by Mikashima et al. (Jap. J. Pharmacol. 44 (1987) 387-391).
A suspension of platelets originating from rabbit blood was used which contained 4×10^9 platelets/ml in a modified Tyrode buffer solution adjusted to pH 7.4. Tyrode solution is an aqueous solution containing 136.9 mmol of NaCl, 2.68 mmol of KCl, 2.31 mmol of CaCl2, 1.0 mmol of MgCl2, 11.9 mmol of NaHCO3, 1.45 mmol of NaH2 PO4 and 5.55 mmol of glucose per liter. This solution was modified by adding 1.3 mM/l of CaCl2 and 2.5 g/l of gelatin. The platelets were obtained from 10 ml blood samples from each of three rabbits (New Zealand hybrids, body weight 3-4 kg). For this, the blood samples were treated with ethylenediaminetetraacetic acid and washed by the method of Artley et al. (Brit. J. Hamatol. 19 (1970), 7-17). A platelet-rich plasma was then initially separated by centrifugation (20 minutes at 400×g). The platelets were separated from the plasma by centrifuging again for 15 minutes at 1400×g. After centrifuging, the platelets remaining as a sediment were resuspended in a calcium-free Tyrode buffer solution. 0.4 mmol of lysine acetylsalicylate were then added and after 15 minutes the blood platelets were sedimented again. The sediment was resuspended in the abovementioned modified Tyrode buffer solution, and the number of platelets in the resulting suspension was adjusted to the desired content.
A 40×10^-9 molar P.A.F. solution was used as the reagent. This solution was prepared from a 1.8×10^-3 molar stock solution in chloroform. For this, a 10μl sample of the stock solution was evaporated to dryness and redissolved in 180 μl of the modified Tyrode solution, to which 0.25% of dilapidated bovine serum albumin had been added. 10^-5 molar working solutions were then prepared from this and stored frozen. Samples of these solutions were appropriately diluted for the tests.
To carry out the tests, 50 μl of the platelet solution and 10 μl of a 40×10^-5 molar solution of the compound to be investigated were added to 330 μl of the modified Tyrode buffer solution with stirring (1000 rpm) in an aggregation tube provided with a small magnetic stirrer. This corresponds to a final test substance concentration of 10^-5 mol/l. After a preincubation time of 90seconds, 10 μl of the P.A.F. preparation were added. The aggregation occurring in the aggregation tubes was measured for 4-5 minutes using a computerized aggregometer.
The aggregation occurring in the test tubes containing only platelet suspension was rated as 0%. The aggregation occurring in test tubes containing platelet suspension and P.A.F. preparation was rated as 100%. The aggregation which still occurred in the presence of the test substances (i.e. during inhibition of the P.A.F.-induced platelet aggregation increase) was measured, and the resulting aggregation inhibition is calculated from this in %.

The target of another assay is T1, histamine (H1) receptor (Cavia porcellus, UniProt P31389).
T1 construct: isolated smooth muscle of the guinea-pig ileum; from tissue; host or cells: isolated ileum segments of Dunkin Hartley guinea-pigs
T1 sequence (P31389 whole entry): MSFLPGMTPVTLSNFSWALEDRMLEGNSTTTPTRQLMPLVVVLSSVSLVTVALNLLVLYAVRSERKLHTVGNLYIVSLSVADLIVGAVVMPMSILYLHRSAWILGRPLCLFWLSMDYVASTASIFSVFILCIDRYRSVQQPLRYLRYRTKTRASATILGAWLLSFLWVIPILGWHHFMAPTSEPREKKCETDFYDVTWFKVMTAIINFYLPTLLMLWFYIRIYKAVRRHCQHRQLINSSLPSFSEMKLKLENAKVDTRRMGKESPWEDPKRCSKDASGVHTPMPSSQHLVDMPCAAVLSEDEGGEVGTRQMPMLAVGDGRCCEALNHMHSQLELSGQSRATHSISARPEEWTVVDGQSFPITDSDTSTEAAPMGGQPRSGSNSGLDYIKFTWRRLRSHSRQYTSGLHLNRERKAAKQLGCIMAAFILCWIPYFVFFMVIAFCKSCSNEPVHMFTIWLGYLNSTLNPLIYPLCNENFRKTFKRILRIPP
In words: Antihistamine (H1) effect: inhibition of histamine-induced contractions of isolated guinea-pig ileum in vitro. In kind it is cell-based, guinea-pig (Dunkin Hartley). To be noted: histamine 5 × 10^-6 mol/l, test substance 10^-6 mol/l. As to the method: 3. Investigation of the antihistamine (H1) effect based on histamine (H1) receptor antagonism in vitro.
To investigate the histamine (H1) receptor antagonism of the substances, the inhibitory effect thereof on histamine-induced contractions of the smooth musculature of isolated organ was determined in vitro. Isolated strips of organ from the ileum were used. In an organ bath of physiological saline solution, they react to addition of histamine by contracting. Addition of the compounds of the invention decreases this histamine-induced contraction of the smooth musculature of the ileum strips. The extent of decrease of the contraction is an indication of the antihistamine (H1) activity of the compounds. The investigation is carried out analogously to the method originally described by Magnus (Pflugers Arch. 102, 123 (1904)).
Experimental description of the determination of the inhibitory effect on the contraction induced by a 5×10^-6 molar histamine concentration on isolated smooth muscle of the guinea-pig ileum.
For the test, 1.5 cm long segments of the ileum from Dunkin Hartley guinea-pigs having a body weight of 300-500 g were employed. Each strip was placed in an organ bath of 10 ml of Krebs-Henseleit physiological saline solution and attached to a customary apparatus for isotonically measuring changes in length of the ileum strip (automated Celaster measuring apparatus) so that the tissue is under a tension of 1 g. The bath was kept at a pH of 7.4 and aerated with a mixture of 5% CO2 and 95% O2. After an equilibration phase, an isotonic contraction of the tissue was produced by adding histamine in a final concentration of 5×10^-6 mol/l and was washed out again after a contact time of 30 seconds. Only those tissues in which three reproducible contractions were obtained at 10 minute intervals were used in the subsequent test. The test substances were then added in a final concentration of 10^-6 mol/l, and after a contact time of 30 seconds histamine was again added up to a concentration of 5×10^-6 mol/l. The contractions which occurred were measured over the course of 30 seconds. The tissue was then washed several times over a period of 10 minutes. A contraction challenge was then induced again by addition of histamine. The contractions which occurred were again measured over 30 seconds. The difference between the amplitude of the contraction obtained by histamine addition alone and the amplitude of the contraction obtained in the presence of the test substance was determined and calculated as % inhibition.
The inhibitory effects on the contractions induced by histamine 30 seconds after administration of the test substance and on the contractions induced by addition of histamine 10 minutes afterward are given in the table.

The mark [4] stands for this setting: after 30 sec., read-out: in vitro (H1) receptor antagonism % inhibitory effect on histamine-induced contractions of the Ileum, after 30 sec.
[5] abbreviates: after 10 min. (after washing), read-out: in vitro (H1) receptor antagonism % inhibitory effect on histamine-induced contractions of the Ileum, after 10 min.

As a reminder, the inhibition in vivo is the percentage by which the read-out fell short of the control. Read a high inhibition in vivo as strong suppression. As to `Cc1ccnc(N2CCN(CCc3c(-c4ccc(Cl)cc4)n4c5c(cccc35)CCC4)CC2)c1` [Example 46], the inhibition in vivo at 20 µmol/kg in assay [1] stood at 35%; in assay [2], 25%. Also, the inhibition at 10 µM in assay [3] worked out at 91%.

Regarding `Cc1cccc(N2CCN(CCc3c(C)n4c5c(cccc35)CCC4)CC2)n1` [Example 50], the figures for the inhibition in vivo at 20 µmol/kg in assay [1] and in assay [2] were 60% and 50%, respectively. Further, the inhibition at 1 µM on histamine (H1) receptor (setting [4]) came to 24%; on histamine (H1) receptor (setting [5]) it was 50%.

For `Cc1ccnc(N2CCN(CCc3c(C)n4c5c(cccc35)[S+]([O-])CC4)CC2)c1` (centres unmarked) [Example 28a, 2,3-Dihydro-5-methyl-6-{2-[4-(4-methylpyridin-2-yl)-piperazin-1-yl]ethyl}-pyrrolo[1,2,3-de]-1,4-benzothiazine-1-oxide], the values for the inhibition in vivo at 20 µmol/kg in assay [1] and in assay [2] were 100% and 90%, respectively. Further, the inhibition at 1 µM at histamine (H1) receptor (setting [4]) came to 25%; on histamine (H1) receptor (setting [5]) it was 24%.
